{"source": "patent US9995734B2", "about": "“Human T cell line assay for evaluating the immunologic identity of glatiramer acetate preparations” (Mylan Inc., priority 2013, dated 2018)", "key": {"[1]": {"tested_on": "Donor 6 GMA-Reactive T-Cell Lines", "test": "ATP proliferation assay, Donor 6 GMA-reactive T-cell lines", "assay_type": "cell-based, human", "settings": "Day 35, GMA Lot 001 and COP 10 μg/mL"}, "[2]": {"tested_on": "panel of six GA-specific long-term human T-cell lines (222-2D8, 222-2F12, 165-F3C, 165-F6C, 205-1C4, 205-1F4)", "test": "GA-specific human T-cell line panel assay (ATP proliferation): GA test lots and altered GA lots compared with Copaxone", "assay_type": "cell-based", "settings": "for ATP Proliferation Assay, Mean / Proliferation (ATP assay), Mean: 4 days; for Proliferation (ATP assay), Mean: Table 95", "protocol": "Proliferation assays, using the panel of six GA-specific long-term human T-cell lines listed in Table 78, were carried out to compare […] GA test lots, GMA/009/14 (GA Lot 009), GMA/010/14 (GA Lot 010), GMA/011/14 (GA Lot 011), GMA/012/14 (GA Lot 012), GMA/013/14 (GA Lot 013), GMA/014/14 (GA Lot 014), GA Lot 016, GMA/017/14 (GA Lot 017), GMA/018/14 (GA Lot 018), and GMA/070/14 (GA Lot 070), manufactured using standard methods, to a Copaxone reference lot.\nEach T-cell line was restimulated using methods described above, using five concentrations of the reference antigen (0.5, 1, 2, 2.5, and 5 μg/ml Copaxone), the same five concentrations of test antigen (the nine GA test lots), and a no antigen control, in the presence of 5×10^4 mitomycin-treated autologous B-LCL. Proliferation was measured by ATP assay after 4 days of incubation with antigen, using methods described previously.\nThe percentages in the last column of each table were calculated as follows: Proliferation response to test antigen minus proliferation response to control (no antigen)÷proliferation response to reference antigen minus proliferation response to control (no antigen)\nThe panel of six GA-specific human T-cell lines listed in Table 78 above was used to test the immunological identity of altered GA lots to Copaxone.\nProliferation assays using the panel of six GA-specific T-cell lines (Table 77) were carried out, to compare negative GA lots 051F, 054F, 055F, 057F, 058F, 059F, and 060F (test lots), to Copaxone (reference lot). Each cell line was restimulated using 5 concentrations of reference antigen (Copaxone) and test antigen (the negative GA lots), including a no antigen control (in the presence of 5×10^4 mitomycin-treated autologous B-LCL). Proliferation was measured by ATP assay after 4 days of incubation with antigen, using methods described previously.\nThe percentages in the last column of each table were calculated as follows: Proliferation response to test antigen minus proliferation response to control (no antigen)÷proliferation response to reference antigen minus proliferation response to control (no antigen)."}}, "note": "“And” between values parts separate entries of the source, which are not always exact repeats. Equal values may be shown once.", "data": [{"substance": "glatiramer acetate [COP]", "values": [{"measurement": "ATP proliferation assay", "setting": "[1]; Cell line 224-B6-001", "value": 78357, "unit": "RLU"}, {"measurement": "ATP proliferation assay", "setting": "[1]; Cell line 224-B7-001", "value": 20586, "unit": "RLU"}, {"measurement": "ATP proliferation assay", "setting": "[1]; Cell line 224-B11-001", "value": 27861, "unit": "RLU"}, {"measurement": "ATP proliferation assay", "setting": "[1]; Cell line 224-C4-001", "value": 52771, "unit": "RLU"}, {"measurement": "ATP proliferation assay", "setting": "[1]; Cell line 224-C11-001", "value": 87933, "unit": "RLU"}, {"measurement": "ATP proliferation assay", "setting": "[1]; Cell line 224-D2-001", "value": 26027, "unit": "RLU"}, {"measurement": "ATP proliferation assay", "setting": "[1]; Cell line 224-D6-001", "value": 68767, "unit": "RLU"}, {"measurement": "ATP proliferation assay", "setting": "[1]; Cell line 224-E2-001", "value": 233094, "unit": "RLU"}, {"measurement": "ATP proliferation assay", "setting": "[1]; Cell line 224-E7-001", "value": 137556, "unit": "RLU"}, {"measurement": "ATP proliferation assay", "setting": "[1]; Cell line 224-F4-001", "value": 114667, "unit": "RLU"}, {"measurement": "ATP proliferation assay", "setting": "[1]; Cell line 224-G2-001", "value": 227257, "unit": "RLU"}, {"measurement": "ATP proliferation assay", "setting": "[1]; Cell line 224-G10-001", "value": 229933, "unit": "RLU"}, {"measurement": "ATP proliferation assay", "setting": "[1]; Cell line 224-G11-001", "value": 91466, "unit": "RLU"}, {"measurement": "ATP Proliferation Assay, Mean", "setting": "[2]; T-cell line 165-F3C, 0.5 μg/mL", "value": "4,783"}, {"measurement": "ATP Proliferation Assay, Mean", "setting": "[2]; T-cell line 165-F3C, 1 μg/mL", "value": "22,290"}, {"measurement": "ATP Proliferation Assay, Mean", "setting": "[2]; T-cell line 165-F3C, 2 μg/mL", "value": "53,771"}, {"measurement": "ATP Proliferation Assay, Mean", "setting": "[2]; T-cell line 165-F3C, 2.5 μg/mL", "value": "54,539"}, {"measurement": "ATP Proliferation Assay, Mean", "setting": "[2]; T-cell line 165-F3C, 5 μg/mL", "value": "58,110"}, {"measurement": "ATP Proliferation Assay, Mean", "setting": "[2]; T-cell line 165-F6C, 0.5 μg/mL", "value": "3,328"}, {"measurement": "ATP Proliferation Assay, Mean", "setting": "[2]; T-cell line 165-F6C, 1 μg/mL", "value": "4,620"}, {"measurement": "ATP Proliferation Assay, Mean", "setting": "[2]; T-cell line 165-F6C, 2 μg/mL", "value": "13,255"}, {"measurement": "ATP Proliferation Assay, Mean", "setting": "[2]; T-cell line 165-F6C, 2.5 μg/mL", "value": "18,726"}, {"measurement": "Mean, ATP proliferation assay", "setting": "[2]; T-cell line 165-F6C, 5 μg/mL", "value": "34,012 and 34,995 and 56,466 and 56,465 and 42,493 and 41,233 and 36,303"}, {"measurement": "ATP Proliferation Assay, Mean", "setting": "[2]; T-cell line 165-F6C, 5 μg/mL", "value": "38,653"}, {"measurement": "ATP Proliferation Assay, Mean", "setting": "[2]; T-cell line 205-1C4, 0.5 μg/mL", "value": 932}, {"measurement": "ATP Proliferation Assay, Mean", "setting": "[2]; T-cell line 205-1C4, 1 μg/mL", "value": "2,481"}, {"measurement": "ATP Proliferation Assay, Mean", "setting": "[2]; T-cell line 205-1C4, 2 μg/mL", "value": "9,432"}, {"measurement": "ATP Proliferation Assay, Mean", "setting": "[2]; T-cell line 205-1C4, 2.5 μg/mL", "value": "13,744"}, {"measurement": "ATP Proliferation Assay, Mean", "setting": "[2]; T-cell line 205-1C4, 5 μg/mL", "value": "45,451"}, {"measurement": "ATP Proliferation Assay, Mean", "setting": "[2]; T-cell line 205-1F4, 0.5 μg/mL", "value": 548}, {"measurement": "ATP Proliferation Assay, Mean", "setting": "[2]; T-cell line 205-1F4, 1 μg/mL", "value": "1,906"}, {"measurement": "ATP Proliferation Assay, Mean", "setting": "[2]; T-cell line 205-1F4, 2 μg/mL", "value": "9,959"}, {"measurement": "ATP Proliferation Assay, Mean", "setting": "[2]; T-cell line 205-1F4, 2.5 μg/mL", "value": "13,589"}, {"measurement": "ATP Proliferation Assay, Mean", "setting": "[2]; T-cell line 205-1F4, 5 μg/mL", "value": "18,491"}, {"measurement": "ATP Proliferation Assay, Mean", "setting": "[2]; T-cell line 222-2D8, 0.5 μg/mL", "value": "5,873"}, {"measurement": "ATP Proliferation Assay, Mean", "setting": "[2]; T-cell line 222-2D8, 1 μg/mL", "value": "14,017"}, {"measurement": "ATP Proliferation Assay, Mean", "setting": "[2]; T-cell line 222-2D8, 2 μg/mL", "value": "90,328"}, {"measurement": "ATP Proliferation Assay, Mean", "setting": "[2]; T-cell line 222-2D8, 2.5 μg/mL", "value": "129,878"}, {"measurement": "ATP Proliferation Assay, Mean", "setting": "[2]; T-cell line 222-2D8, 5 μg/mL", "value": "171,116"}, {"measurement": "ATP Proliferation Assay, Mean", "setting": "[2]; T-cell line 222-2F12, 0.5 μg/mL", "value": "10,879"}, {"measurement": "ATP Proliferation Assay, Mean", "setting": "[2]; T-cell line 222-2F12, 1 μg/mL", "value": "27,042"}, {"measurement": "ATP Proliferation Assay, Mean", "setting": "[2]; T-cell line 222-2F12, 2 μg/mL", "value": "105,024"}, {"measurement": "ATP Proliferation Assay, Mean", "setting": "[2]; T-cell line 222-2F12, 2.5 μg/mL", "value": "115,241"}, {"measurement": "ATP Proliferation Assay, Mean", "setting": "[2]; T-cell line 222-2F12, 5 μg/mL", "value": "129,291"}, {"measurement": "Proliferation (ATP assay), Mean", "setting": "[2]; T-cell line 165-F3C, GA conc. 0.5 μg/mL", "value": "3,154"}, {"measurement": "Proliferation (ATP assay), Mean", "setting": "[2]; T-cell line 165-F3C, GA conc. 1 μg/mL", "value": "9,050"}, {"measurement": "Proliferation (ATP assay), Mean", "setting": "[2]; T-cell line 165-F3C, GA conc. 2 μg/mL", "value": "27,693"}, {"measurement": "Proliferation (ATP assay), Mean", "setting": "[2]; T-cell line 165-F3C, GA conc. 2.5 μg/mL", "value": "28,018"}, {"measurement": "Proliferation (ATP assay), Mean", "setting": "[2]; T-cell line 165-F3C, GA conc. 5 μg/mL", "value": "32,151"}, {"measurement": "Proliferation (ATP assay), Mean", "setting": "[2]; T-cell line 165-F6C, GA conc. 0.5 μg/mL", "value": 863}, {"measurement": "Proliferation (ATP assay), Mean", "setting": "[2]; T-cell line 165-F6C, GA conc. 1 μg/mL", "value": "1,838"}, {"measurement": "Proliferation (ATP assay), Mean", "setting": "[2]; T-cell line 165-F6C, GA conc. 2 μg/mL", "value": "8,163"}]}]}
